We go through 7 molecules from ChEMBL document CHEMBL1150180, “Studies on Cytotoxic Constituents in Pericarps of Mallotus japonicus, V. Three New Phloroglucinol Derivatives, Butyrylmallotochromanol, Isobutyrylmallotochromanol, and Mallotojaponol” (1990).

≈ marks a conversion by molar mass, not a printed value.

In this assay the test system is KB. Description: Cytotoxicity against human KB cells. The assay is classed as functional. The conditions noted are these: read-out: ED50 (the source's name).
Turning to `COc1c(C)c(O)c(C(C)=O)c(O)c1Cc1c(O)c2c(c(C(=O)C(C)C)c1O)OC(C)(C)C(O)C2` (configuration not stated) [ISOBUTYRYLMALLOTOCHROMANOL], the EC50 was found to be 14.6 µg/mL (≈ 29.9 µM).

For `CCCC(=O)c1c(OC(C)=O)c(Cc2c(OC)c(C)c(OC(C)=O)c(C(C)=O)c2OC(C)=O)c(OC(C)=O)c2c1OC(C)(C)C(OC(C)=O)C2` (configuration not stated), the EC50 was 2.8 µg/mL (≈ 4.01 µM).

On to `CCCC(=O)c1c(O)c(Cc2c(O)c(C(C)=O)c(O)c(C)c2OC)c(O)c2c1OC(C)(C)C(O)C2` (configuration not stated) [BUTYRYLMALLOTOCHROMANOL], for which the EC50 stood at 13.5 µg/mL (≈ 27.6 µM).

Regarding `COc1c(C)c(OC(C)=O)c(C(C)=O)c(OC(C)=O)c1Cc1c(OC(C)=O)c2c(c(C(=O)C(C)C)c1OC(C)=O)OC(C)(C)C(OC(C)=O)C2` (configuration not stated), the EC50 is 4.5 µg/mL (≈ 6.44 µM).

For the molecule `COc1c(C)c(O)c(C(C)=O)c(O)c1Cc1c(O)c2c(c(C(C)=O)c1O)OC(C)(C)C(O)C2` (configuration not stated) [MALLOTOCHROMANOL], the EC50 worked out at 21 µg/mL (≈ 45.6 µM).

For `COc1c(C)c(O)c(C(C)=O)c(O)c1Cc1c(O)c(CC(O)C(C)(C)O)c(O)c(C(C)=O)c1O` (configuration not stated) [MALLOTOJAPONOL], the EC50 was determined as 22 µg/mL (≈ 46 µM).

Take `COc1c(C)c(OC(C)=O)c(C(C)=O)c(OC(C)=O)c1Cc1c(OC(C)=O)c(CC(OC(C)=O)C(C)(C)OC(C)=O)c(OC(C)=O)c(C(C)=O)c1OC(C)=O` (configuration not stated): the EC50 is 22.5 µg/mL (≈ 29.1 µM).
